# Test results published in patent US20220288052A1, “COMPOUND FOR COMBINATION TREATMENT” (priority 2019, published 2022).
# Read-outs that look alike come from different tables or passages of the source.
# Experiments:
# NET = NET (Homo sapiens, UniProt P23975); experiment: MDS LeadProfilingScreen, NET; assay type: binding
# DA transporter = target: T1, DA transporter (Mus musculus, UniProt Q61327); experiment: In vivo ^3H-WIN 35.428 binding (DA transporter occupancy), PD/PK
# T1 construct: in vivo DAT transporter occupancy (open bars) in mouse striatum; from tissue; host or cells: mouse striatum (in vivo; C57 mice in the MPTP model)
# Experimental: The relationship between brain concentrations of compound (I) and transporter occupancy was investigated in in vivo ^3H-WIN 35.428 binding in mice. A relationship between increasing plasma and brain concentrations with each increase in dose level, and a corresponding increase in CNS in vivo DA transporter occupancy 90 min post administration. In both cases there was a close correlation between plasma and brain concentrations and in vivo transporter occupancy in brain, the brain to plasma ratio was approximately 4 at 3, 10 and 30 mg/kg (FIG. 1). […] The inhibition of in vivo WIN binding was measured 90 min after p.o. administration of the compound.
# The in vivo receptor occupancy (RO %) of compound (I) was calculated at the MED values (DOSE) in mFST and in the mouse motility test using the formula RO % (estimated)=DOSE 100/(ED50+DOSE). The calculations were based on ED50 values in ex vivo uptake of 5-HT and NA and WIN in vivo binding.
# It is known that the critical factor for psychomimetic side effects of a dopaminergic drug is the speed of inhibition of the DA transporter rather than the increase in DA release per se.
# NA transporter = NA transporter (Rattus norvegicus, UniProt Q63380); experiment: ^3H-uptake rat, NA transporter; assay type: biochemical
# Text: Compound (I) has been characterized as a monoamine reuptake inhibitor, based on the profile in a series of functional assays (Table 2).
# NMRI mice = experiment: Mouse marble burying test (mMB); assay type: in vivo
# Experimental: FIG. 13: Marble burying. In the marble-burying test mice exposed to a novel object (marbles) bury them in the sawdust floor covering. Compounds showing anxiolytic-like activity decrease the number of buried marbles at non-sedative doses. […] The number of marbles covered by sawdust was counted at the end of a 60-min session.
# Compound (I) was tested in three widely used behavioural screens for predicting anxiolytic effects in the clinic: the mouse marble burying test (mMB), mouse zero maze (mZM) and mouse stress-induced hyperthermia test (mSIH).
# [1] = Exposure and tissue distribution after 14 days repeat dosing, mouse; assay type: in vivo; details: for concentration at 2 h / Kp at 2 h: mouse, po, 2 h post last dose
# Experimental: Single time point data is available from two 14 days repeat dose studies in mice and rats dosed to both sexes. The three low doses were performed together as one study and the top dose was performed at another occasion as a satellite study.
# Samples were taken 2 h post last dose.
# Plasma, brain and liver were taken 2 h post last dose.
# Serotonin 5-HT3 = target: T2, Serotonin 5-HT3 (Homo sapiens, UniProt P46098); experiment: MDS LeadProfilingScreen, Serotonin 5-HT3; assay type: binding
# T2 sequence (P46098 24-478): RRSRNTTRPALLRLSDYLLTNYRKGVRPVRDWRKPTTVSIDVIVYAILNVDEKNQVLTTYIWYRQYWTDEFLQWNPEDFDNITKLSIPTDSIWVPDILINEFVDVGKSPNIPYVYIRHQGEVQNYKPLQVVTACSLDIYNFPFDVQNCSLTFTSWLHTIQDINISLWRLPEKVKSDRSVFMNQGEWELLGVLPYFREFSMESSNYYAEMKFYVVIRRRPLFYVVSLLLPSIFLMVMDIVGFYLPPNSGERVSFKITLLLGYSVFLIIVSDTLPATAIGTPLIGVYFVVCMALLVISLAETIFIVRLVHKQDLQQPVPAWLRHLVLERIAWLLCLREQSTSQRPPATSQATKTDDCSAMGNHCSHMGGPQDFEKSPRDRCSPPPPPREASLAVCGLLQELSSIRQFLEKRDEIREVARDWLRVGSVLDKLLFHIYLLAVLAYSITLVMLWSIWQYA
# Nicotinic α3β4 = Nicotinic α3β4 (Homo sapiens, UniProt P30926+P32297); experiment: Selectivity screen, Nicotinic α3β4; assay type: binding
# Sequence of Nicotinic α3β4 (P32297 32-505): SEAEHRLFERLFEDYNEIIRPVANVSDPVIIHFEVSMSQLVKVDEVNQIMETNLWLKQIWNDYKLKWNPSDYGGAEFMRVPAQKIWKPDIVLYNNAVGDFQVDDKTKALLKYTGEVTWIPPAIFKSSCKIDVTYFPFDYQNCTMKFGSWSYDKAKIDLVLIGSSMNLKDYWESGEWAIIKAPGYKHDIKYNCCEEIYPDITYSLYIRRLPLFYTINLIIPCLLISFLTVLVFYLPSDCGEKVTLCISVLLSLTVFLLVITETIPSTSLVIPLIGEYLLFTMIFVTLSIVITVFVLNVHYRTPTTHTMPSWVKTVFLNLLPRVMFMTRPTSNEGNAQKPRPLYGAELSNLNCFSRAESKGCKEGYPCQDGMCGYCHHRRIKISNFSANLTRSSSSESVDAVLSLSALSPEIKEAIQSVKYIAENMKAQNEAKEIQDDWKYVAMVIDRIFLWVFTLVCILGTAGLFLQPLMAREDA
# Sequence of Nicotinic α3β4 (P30926 22-498): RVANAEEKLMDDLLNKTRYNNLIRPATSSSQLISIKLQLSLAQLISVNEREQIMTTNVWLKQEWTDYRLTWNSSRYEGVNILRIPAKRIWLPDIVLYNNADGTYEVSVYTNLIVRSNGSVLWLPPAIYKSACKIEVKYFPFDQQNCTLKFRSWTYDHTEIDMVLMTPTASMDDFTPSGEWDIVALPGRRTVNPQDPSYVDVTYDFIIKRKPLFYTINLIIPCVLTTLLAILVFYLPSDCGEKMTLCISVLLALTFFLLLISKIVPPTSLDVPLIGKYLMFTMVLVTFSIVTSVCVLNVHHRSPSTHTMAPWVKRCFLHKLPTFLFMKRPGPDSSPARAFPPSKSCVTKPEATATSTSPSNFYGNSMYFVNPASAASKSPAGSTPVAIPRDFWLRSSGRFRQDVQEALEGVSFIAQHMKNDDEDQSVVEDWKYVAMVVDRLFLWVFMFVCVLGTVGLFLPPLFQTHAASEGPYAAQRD
# T1 sequence (Q61327 whole entry): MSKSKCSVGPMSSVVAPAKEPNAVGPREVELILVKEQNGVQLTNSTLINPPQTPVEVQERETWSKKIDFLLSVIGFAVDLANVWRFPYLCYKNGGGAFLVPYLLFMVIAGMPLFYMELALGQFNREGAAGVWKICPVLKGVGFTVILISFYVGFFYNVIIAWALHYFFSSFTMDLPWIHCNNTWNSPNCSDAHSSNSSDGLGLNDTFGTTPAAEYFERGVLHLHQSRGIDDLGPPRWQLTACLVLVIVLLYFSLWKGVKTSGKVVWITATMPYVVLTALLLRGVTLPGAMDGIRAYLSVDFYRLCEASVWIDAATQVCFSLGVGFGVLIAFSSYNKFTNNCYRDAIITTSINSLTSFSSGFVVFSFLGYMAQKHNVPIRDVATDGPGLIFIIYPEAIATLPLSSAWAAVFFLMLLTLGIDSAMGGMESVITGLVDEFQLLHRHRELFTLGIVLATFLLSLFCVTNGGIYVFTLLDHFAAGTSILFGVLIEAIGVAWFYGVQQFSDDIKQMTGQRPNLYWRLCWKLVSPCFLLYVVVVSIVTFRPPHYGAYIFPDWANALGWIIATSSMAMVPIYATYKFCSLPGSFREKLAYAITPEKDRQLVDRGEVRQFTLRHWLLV
# Sequence of NET (P23975 whole entry): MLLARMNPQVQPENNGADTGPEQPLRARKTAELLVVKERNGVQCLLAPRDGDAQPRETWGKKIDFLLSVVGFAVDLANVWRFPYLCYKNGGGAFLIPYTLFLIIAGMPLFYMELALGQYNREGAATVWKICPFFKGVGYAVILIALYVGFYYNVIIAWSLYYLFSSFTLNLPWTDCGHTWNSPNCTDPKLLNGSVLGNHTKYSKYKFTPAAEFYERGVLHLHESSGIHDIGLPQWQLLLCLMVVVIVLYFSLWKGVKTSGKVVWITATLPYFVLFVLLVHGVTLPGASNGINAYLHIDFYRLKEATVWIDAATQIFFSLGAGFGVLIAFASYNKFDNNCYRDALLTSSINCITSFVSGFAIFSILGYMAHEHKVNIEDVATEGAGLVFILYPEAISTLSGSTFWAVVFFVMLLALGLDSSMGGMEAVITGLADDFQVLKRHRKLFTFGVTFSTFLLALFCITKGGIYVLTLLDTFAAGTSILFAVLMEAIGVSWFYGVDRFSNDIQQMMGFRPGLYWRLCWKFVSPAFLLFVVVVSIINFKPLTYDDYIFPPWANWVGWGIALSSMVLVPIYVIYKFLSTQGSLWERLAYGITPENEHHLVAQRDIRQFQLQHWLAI
# Sequence of NA transporter (Q63380 1-617): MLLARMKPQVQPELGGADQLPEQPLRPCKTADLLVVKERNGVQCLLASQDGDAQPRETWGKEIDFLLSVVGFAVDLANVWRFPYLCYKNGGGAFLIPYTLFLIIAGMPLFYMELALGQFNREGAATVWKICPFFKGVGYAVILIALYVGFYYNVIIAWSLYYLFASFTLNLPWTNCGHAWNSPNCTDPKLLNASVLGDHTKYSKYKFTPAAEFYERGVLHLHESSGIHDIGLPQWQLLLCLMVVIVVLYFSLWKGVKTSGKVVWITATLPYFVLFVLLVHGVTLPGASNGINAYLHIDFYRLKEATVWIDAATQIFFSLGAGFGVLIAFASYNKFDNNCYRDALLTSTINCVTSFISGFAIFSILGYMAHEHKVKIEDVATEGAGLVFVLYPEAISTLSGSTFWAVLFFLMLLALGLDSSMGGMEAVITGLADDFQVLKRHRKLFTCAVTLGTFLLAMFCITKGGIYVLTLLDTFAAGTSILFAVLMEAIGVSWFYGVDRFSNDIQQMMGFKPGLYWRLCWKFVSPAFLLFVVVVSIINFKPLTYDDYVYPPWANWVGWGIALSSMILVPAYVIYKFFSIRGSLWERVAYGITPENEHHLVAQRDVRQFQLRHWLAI
smiles,measurement,setting,value
"O=c1ccc2ccc(O[C@@H]3C[C@H]4CC[C@@H](C3)N4)cc2o1 [Compound (I), exo-7-(8-aza-bicyclo[3.2.1]oct-3-yloxy)-chromen-2-one]",Ki,NET,594 nM
same,inhibition at 10 µM,"NET; NET, Human, 10 μM",92%
same,DA RO %,"DA transporter; estimated at MED in mFST (NMRI mice), DOSE 1 mg/kg",9%
same,DA RO %,"DA transporter; estimated at MED in mMotility, DOSE 10 mg/kg",50%
same,In vivo WIN binding time course,"DA transporter; mice, 20 mg/kg p.o.",slow onset of DA transporter blockade in vivo
same,Kp at 1.5 h,"DA transporter; mouse, brain, po, mice, 3, 10 and 30 mg/kg p.o., 90 min post administration, read-out: Brain to plasma ratio",~4
same,ED50,"DA transporter; mouse, po, read-out: ED50 in WIN in vivo binding in mice",9.9 mg/kg
same,IC50,NA transporter,85 nM
same,MED,"NMRI mice; Marble burying, p.o., −60 min",0.1 mg/kg
same,Number of visible marbles,"NMRI mice; per oral, NMRI mice, 60-min session",dose-dependently (0.1-1.0 mg/kg) increases in the number of visible marbles
same,concentration at 2 h,"[1]; NMRI, brain, Female mice, 15 mg/kg p.o. 14 days, read-out: Brain concentration",2640 ng/g
same,Kp at 2 h,"[1]; NMRI, brain, Female mice, 15 mg/kg p.o. 14 days, read-out: Brain/plasma ratio",7
same,concentration at 2 h,"[1]; NMRI, brain, Female mice, 30 mg/kg p.o. 14 days, read-out: Brain concentration",7070 ng/g
same,Kp at 2 h,"[1]; NMRI, brain, Female mice, 30 mg/kg p.o. 14 days, read-out: Brain/plasma ratio",6
same,concentration at 2 h,"[1]; NMRI, brain, Female mice, 60 mg/kg p.o. 14 days, read-out: Brain concentration",11500 ng/g
same,Kp at 2 h,"[1]; NMRI, brain, Female mice, 60 mg/kg p.o. 14 days, read-out: Brain/plasma ratio",6
same,concentration at 2 h,"[1]; NMRI, brain, Female mice, 90 mg/kg p.o. 14 days, read-out: Brain concentration",17100 ng/g
same,concentration at 2 h,"[1]; NMRI, brain, Male mice, 15 mg/kg p.o. 14 days, read-out: Brain concentration",1970 ng/g
same,Kp at 2 h,"[1]; NMRI, brain, Male mice, 15 mg/kg p.o. 14 days, read-out: Brain/plasma ratio",7
same,concentration at 2 h,"[1]; NMRI, brain, Male mice, 30 mg/kg p.o. 14 days, read-out: Brain concentration",4720 ng/g
same,Kp at 2 h,"[1]; NMRI, brain, Male mice, 30 mg/kg p.o. 14 days, read-out: Brain/plasma ratio",6
same,concentration at 2 h,"[1]; NMRI, brain, Male mice, 60 mg/kg p.o. 14 days, read-out: Brain concentration",8080 ng/g
same,Kp at 2 h,"[1]; NMRI, brain, Male mice, 60 mg/kg p.o. 14 days, read-out: Brain/plasma ratio",6
same,concentration at 2 h,"[1]; NMRI, brain, Male mice, 90 mg/kg p.o. 14 days, read-out: Brain concentration",21100 ng/g
same,Kp at 2 h,"[1]; NMRI, in vivo, Female mice, 15 mg/kg p.o. 14 days, read-out: Liver/plasma ratio",18
same,Kp at 2 h,"[1]; NMRI, in vivo, Female mice, 30 mg/kg p.o. 14 days, read-out: Liver/plasma ratio",18
same,Kp at 2 h,"[1]; NMRI, in vivo, Female mice, 60 mg/kg p.o. 14 days, read-out: Liver/plasma ratio",21
same,Kp at 2 h,"[1]; NMRI, in vivo, Male mice, 15 mg/kg p.o. 14 days, read-out: Liver/plasma ratio",28
same,Kp at 2 h,"[1]; NMRI, in vivo, Male mice, 30 mg/kg p.o. 14 days, read-out: Liver/plasma ratio",17
same,Kp at 2 h,"[1]; NMRI, in vivo, Male mice, 60 mg/kg p.o. 14 days, read-out: Liver/plasma ratio",12
same,concentration at 2 h,"[1]; NMRI, liver, Female mice, 15 mg/kg p.o. 14 days, read-out: Liver concentration",7160 ng/g
same,concentration at 2 h,"[1]; NMRI, liver, Female mice, 30 mg/kg p.o. 14 days, read-out: Liver concentration",22500 ng/g
same,concentration at 2 h,"[1]; NMRI, liver, Female mice, 60 mg/kg p.o. 14 days, read-out: Liver concentration",42000 ng/g
same,concentration at 2 h,"[1]; NMRI, liver, Male mice, 15 mg/kg p.o. 14 days, read-out: Liver concentration",8220 ng/g
same,concentration at 2 h,"[1]; NMRI, liver, Male mice, 30 mg/kg p.o. 14 days, read-out: Liver concentration",12700 ng/g
same,concentration at 2 h,"[1]; NMRI, liver, Male mice, 60 mg/kg p.o. 14 days, read-out: Liver concentration",17700 ng/g
same,concentration at 2 h,"[1]; NMRI, plasma, Female mice, 15 mg/kg p.o. 14 days, read-out: Plasma concentration",390 ng/mL
same,concentration at 2 h,"[1]; NMRI, plasma, Female mice, 30 mg/kg p.o. 14 days, read-out: Plasma concentration",1280 ng/mL
same,concentration at 2 h,"[1]; NMRI, plasma, Female mice, 60 mg/kg p.o. 14 days, read-out: Plasma concentration",2000 ng/mL
same,concentration at 2 h,"[1]; NMRI, plasma, Male mice, 15 mg/kg p.o. 14 days, read-out: Plasma concentration",289 ng/mL
same,concentration at 2 h,"[1]; NMRI, plasma, Male mice, 30 mg/kg p.o. 14 days, read-out: Plasma concentration",762 ng/mL
same,concentration at 2 h,"[1]; NMRI, plasma, Male mice, 60 mg/kg p.o. 14 days, read-out: Plasma concentration",1420 ng/mL
same,Linearity of kinetics after repeat dosing,"[1]; mice, 15-90 mg/kg p.o. 14 days, 5% glucose",tendency to sub-linear kinetics
same,Kp at 2 h,"[1]; brain, Female mice, 90 mg/kg p.o. 14 days, read-out: Brain/plasma ratio",4
same,Kp at 2 h,"[1]; brain, Male mice, 90 mg/kg p.o. 14 days, read-out: Brain/plasma ratio",4
same,Kp at 2 h,"[1]; in vivo, Female mice, 90 mg/kg p.o. 14 days, read-out: Liver/plasma ratio",16
same,Kp at 2 h,"[1]; in vivo, Male mice, 90 mg/kg p.o. 14 days, read-out: Liver/plasma ratio",16
same,concentration at 2 h,"[1]; liver, Female mice, 90 mg/kg p.o. 14 days, read-out: Liver concentration",63300 ng/g
same,concentration at 2 h,"[1]; liver, Male mice, 90 mg/kg p.o. 14 days, read-out: Liver concentration",75000 ng/g
same,concentration at 2 h,"[1]; plasma, Female mice, 90 mg/kg p.o. 14 days, read-out: Plasma concentration",3980 ng/mL
same,concentration at 2 h,"[1]; plasma, Male mice, 90 mg/kg p.o. 14 days, read-out: Plasma concentration",4730 ng/mL
same,Ki,Serotonin 5-HT3,1040 nM
same,Separation to transporter hDAT,Serotonin 5-HT3; 5-HT3 Ki versus hDAT Ki 155 nM,x6.7
same,Separation to transporter hNET,Serotonin 5-HT3; 5-HT3 Ki versus hNET Ki 594 nM,x1.7
same,inhibition at 10 µM,"Serotonin 5-HT3; Serotonin 5-HT3, Human, 10 μM",86%
same,Ki,Nicotinic α3β4,5050 nM
same,Separation to transporter hDAT,Nicotinic α3β4; Nicotinic acetylcholine Ki versus hDAT Ki 155 nM,x32
same,Separation to transporter hNET,Nicotinic α3β4; Nicotinic acetylcholine Ki versus hNET Ki 594 nM,x8.5
same,inhibition at 10 µM,"Nicotinic α3β4; Nicotinic α3β4, Human, 10 μM",57%
